Data set [1] relates to N-acetyl glycyl-lysine methyl ester. The experiment in a line: Inhibition of cross-linking of N-acetyl glycyl-lysine methyl ester in the presence of ribose (fluorescence). In kind it is biochemical. The conditions noted are these: 0.5 M sodium phosphate buffer pH 7.4, 37° C., 16-24 hours; read-out: IC50 inhibition of cross-linking of N-acetylglycyllysine methyl ester with ribose. From the text: The following method was used to evaluate the ability of the compounds of the present invention to inhibit the cross-linking of N-acetyl glycyl-lysine methyl ester in the presence of ribose.
N-acetylglycyllysine methyl ester (DP in formula below)
Ribose (R in formula below)
Test compounds (C in formula below)
0.5 M sodium phosphate buffer pH 7.4
N-acetylglycyllysine methyl ester in 0.5M sodium phosphate buffer, pH 7.4
Test compounds dissolved in the above buffer and the pH is adjusted to 7.4, if necessary
Reaction mixtures are prepared as follows:
and incubated at 37° C. for 16-24 hours. At the end of the incubation period reaction mixture is diluted with 3 ml distilled water and the fluorescence is read using an excitation wavelength of 350 nm and emission wavelength of […]. The inhibition of the cross-linking is calculated from the decrease in the fluorescence in the presence of the test compounds according to the formula:
Inhibition (%)=100×[DPRC fluorescence−RC fluorescence]/DPR fluorescence
The Inhibition by various test compounds (IC50) is as follows: […]

For a further data set, the system named is kidney. The conditions noted are these: in vivo; cited from earlier work.
A further data set has as its system red blood cells. To be noted: in vivo; cited from earlier work.
Data set [2] deals with streptozotocin-diabetic rat. To be noted: cited from earlier work.
Another data set concerns diabetic rats. To be noted: cited from earlier work.

Counter-ions that a name gives are not always drawn. Where only a bound is given, the exact number is not on record here.

One may read the IC50 as the concentration that inhibits the measured activity by half. For “2-methyl-[6′-(3′,4′-diamino-5(4H)-one-1,2,4-triazinyl)]hydrazide”, the IC50 in data set [1] amounted to 0.83 mM.

Consider `COc1cccc(C(=O)C=C2NN=C(N)N(N)C2=O)c1` [3,4-diamino-6-(3′-methoxyphenylcarbonylmethylene)-1,2,4-triazine-5(4H)-one], for which, in data set [1], the 50% inhibitory concentration (IC50) was over 10 mM.

Turning to `CCCCc1nnc(N)n(N)c1=O` [3,4-diamino-6-butyl-1,2,4-triazine-5(4H)-one], the IC50 in data set [1] is 1.6 mM.

In general, melting point refers to the temperature of the solid-liquid transition. Consider `Cl.NNc1nnc(Cc2ccc(O)cc2)c(=O)n1N` [4-amino-3-hydrazino-6-(4′-hydroxybenzyl)-1,2,4-triazin-5(4H)-one hydrochloride], for which the melting point was 218 to 222 °C (dec.). In data set [1], the half-inhibitory concentration (IC50) is over 1 mM.

Consider `Cc1nnc(NN)n(N)c1=O` [4-amino-3-hydrazino-6-methyl-1,2,4-triazin-5(4H)-one hydrochloride], for which, in data set [1], the concentration for half-maximal inhibition (IC50) is under 3 mM.

As to `N=C(N)NN` [aminoguanidine], in the data set with kidney, the “Immunoglobulin trapping in the kidney” value is on record as “reduction of immunoglobulin trapping in the kidney”. Moreover, in the data set with red blood cells, the “Diabetes-induced changes in the deformability of red blood cells” value is reported as “has been shown to prevent it in vivo”. Further, the “Increased glomerular basement membrane thickness” value in data set [2] is on record as “prevented”. In the data set with diabetic rats, the “Aortic wall protein cross-linking” value is reported as “diminishes aortic wall protein cross-linking”.

The record behind these values is US6380192B1, “Triazine compounds and method of use therefor” (Alteon, Inc., priority 1996, dated 2002).
